Laboratory results from the supplement of paper PMC10307832.

What was measured:
Assay in all cases: relative viability (nuclei count vs DMSO), 5 days (fraction); higher = more cells survive
Dabrafenib + Dasatinib = compound: CC(C)(C)c1nc(-c2cccc(NS(=O)(=O)c3c(F)cccc3F)c2F)c(-c2ccnc(N)n2)s1 [Dabrafenib] + Cc1nc(Nc2ncc(C(=O)Nc3c(C)cccc3Cl)s2)cc(N2CCN(CCO)CC2)n1 [Dasatinib] (partner 0.075 µM)
Summary of the method: (§1)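 Lung cancer cell lines in 1536-well plates got either a single drug or a fixed anchor-drug dose together with five library-drug doses (not always all listed) in √10 steps, by pin tool, on the day after seeding. Nuclei were counted after 5 days, and relative viability is the treated-to-vehicle ratio of nuclei counts. Values are medians of duplicate plates.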

VX-702 + Crizotinib = compound: NC(=O)c1ccc(N(C(N)=O)c2c(F)cccc2F)nc1-c1ccc(F)cc1F [VX-702] + C[C@@H](Oc1cc(-c2cnn(C3CCNCC3)c2)cnc1N)c1c(Cl)ccc(F)c1Cl [Crizotinib] (partner 1 µM)
Summary of the method: as §1

VX-702 + Foretinib = compound: NC(=O)c1ccc(N(C(N)=O)c2c(F)cccc2F)nc1-c1ccc(F)cc1F [VX-702] + COc1cc2c(Oc3ccc(NC(=O)C4(C(=O)Nc5ccc(F)cc5)CC4)cc3F)ccnc2cc1OCCCN1CCOCC1 [Foretinib] (partner 0.25 µM)
Summary of the method: as §1

Dabrafenib + Alpelisib = compound: CC(C)(C)c1nc(-c2cccc(NS(=O)(=O)c3c(F)cccc3F)c2F)c(-c2ccnc(N)n2)s1 [Dabrafenib] + Cc1nc(NC(=O)N2CCC[C@H]2C(N)=O)sc1-c1ccnc(C(C)(C)C(F)(F)F)c1 [Alpelisib] (partner 2 µM)
Summary of the method: as §1

| Cell Line | relative viability (Dabrafenib + Dasatinib; first compound 0.003 µM) | relative viability (Dabrafenib + Dasatinib; first compound 0.009487 µM) | relative viability (Dabrafenib + Dasatinib; first compound 0.03 µM) | relative viability (Dabrafenib + Dasatinib; first compound 0.3 µM) | relative viability (VX-702 + Crizotinib; first compound 0.02 µM) | relative viability (VX-702 + Crizotinib; first compound 0.2 µM) | relative viability (VX-702 + Crizotinib; first compound 0.6325 µM) | relative viability (VX-702 + Crizotinib; first compound 2 µM) | relative viability (VX-702 + Foretinib; first compound 0.02 µM) | relative viability (VX-702 + Foretinib; first compound 0.2 µM) | relative viability (VX-702 + Foretinib; first compound 0.6325 µM) | relative viability (VX-702 + Foretinib; first compound 2 µM) | relative viability (Dabrafenib + Alpelisib; first compound 0.003 µM) | relative viability (Dabrafenib + Alpelisib; first compound 0.009487 µM) | relative viability (Dabrafenib + Alpelisib; first compound 0.03 µM) | relative viability (Dabrafenib + Alpelisib; first compound 0.09487 µM) | relative viability (Dabrafenib + Alpelisib; first compound 0.3 µM) | relative viability (Dabrafenib + Dasatinib; first compound 0.09487 µM) |
| --- | --- | --- | --- | --- | --- | --- | --- | --- | --- | --- | --- | --- | --- | --- | --- | --- | --- | --- |
| HCC-827 | 0.44 | 0.384 | 0.287 | 0.382 | 0.922 | 0.9 | 0.869 | 0.906 | 1.07 | 0.988 | 1.07 | 0.787 | 0.895 | 0.967 | 0.778 | 0.793 | 0.963 | – |
| HOP-62 | 0.509 | 0.738 | 0.588 | 0.539 | 0.946 | 0.651 | 0.549 | 0.915 | 1.18 | 1.19 | 1.25 | 1.33 | – | 1 | 0.734 | 0.902 | 0.771 | 0.603 |
| IA-LM | – | – | – | – | 0.792 | 0.862 | 0.722 | 1.05 | 1.21 | 1.1 | 1.2 | 1.15 | 0.613 | 0.607 | 0.72 | 0.242 | 0.0678 | – |
| LC-2-ad | – | 0.802 | 0.518 | 0.677 | 0.502 | – | 0.449 | 0.504 | 0.765 | 0.958 | 0.838 | 0.99 | 0.907 | 0.824 | 0.891 | 0.835 | 0.882 | 0.512 |
| LCLC-97TM1 | 0.574 | 0.847 | 0.843 | 0.534 | 0.285 | 0.342 | 0.421 | 0.558 | 0.836 | 0.923 | 0.938 | 0.991 | – | 0.228 | 0.303 | – | 0.258 | 0.36 |
| LCLC-103H | 0.495 | 0.526 | 0.513 | 0.379 | 1.04 | 0.973 | 1.13 | 1.07 | 0.71 | 0.702 | 0.534 | 0.881 | 0.726 | 1.16 | 0.912 | 0.853 | 0.972 | 0.447 |
| LK-2 | 0.208 | 0.274 | – | 0.276 | 0.258 | – | 0.223 | 0.23 | 0.985 | 1.21 | 1.08 | 1.11 | 1.05 | 1.14 | – | 1.35 | 1.13 | 0.285 |
| LOU-NH91 | 0.41 | 0.573 | 0.582 | 0.568 | 0.711 | 0.741 | 0.786 | 0.659 | 0.94 | 0.973 | 0.994 | 0.704 | – | 0.803 | 0.652 | 0.7 | 0.743 | 0.49 |
| LU99A | 0.662 | 0.569 | 0.423 | 0.41 | 0.61 | 0.467 | 0.475 | 0.437 | 0.871 | 0.677 | 0.786 | 0.721 | 0.563 | 0.439 | 0.48 | 0.502 | 0.515 | 0.464 |
| LXF-289 | 0.175 | 0.2 | 0.211 | 0.192 | 0.924 | 0.802 | 0.874 | 0.864 | 1.04 | 0.962 | 0.958 | 0.98 | 1.02 | 1.03 | 1.02 | 0.991 | 1.06 | 0.195 |
| NCI-H23 | – | 0.814 | 0.873 | 0.666 | 0.524 | 0.523 | 0.678 | 0.756 | 0.961 | 1.03 | 1.15 | 1.21 | – | 0.787 | 0.554 | 0.652 | 0.791 | 0.625 |
| NCI-H322M | – | 0.229 | 0.233 | 0.236 | 1.04 | 0.861 | 1.01 | 1.08 | 0.964 | 0.875 | 0.932 | 1 | – | 0.829 | – | 0.629 | 0.85 | 0.279 |
| NCI-H358 | 0.185 | 0.197 | 0.233 | 0.392 | 0.659 | 0.549 | 0.542 | 0.681 | 0.692 | 0.598 | 0.663 | 0.936 | – | 1.01 | 0.735 | 1.01 | 1.15 | 0.487 |
| NCI-H522 | – | 0.862 | 0.671 | 0.899 | – | – | – | – | – | – | – | – | – | – | – | – | – | 0.83 |
| NCI-H1299 | – | – | – | – | 1.07 | 0.97 | 0.942 | 1.07 | 1.15 | 1.14 | 1.15 | 1.22 | 1.14 | 0.982 | 1.03 | 0.87 | 0.757 | – |
| NCI-H1395 | 0.375 | 0.462 | 0.396 | 0.366 | – | – | – | – | 0.986 | 1.03 | 0.968 | 1.12 | – | 0.914 | 0.894 | 0.944 | 0.878 | 0.409 |
| NCI-H1623 | – | 0.521 | 0.585 | 0.619 | – | – | – | – | 0.819 | 0.81 | 0.835 | 0.744 | – | – | – | – | – | 0.611 |
| NCI-H1650 | 0.263 | 0.376 | 0.425 | 0.378 | 1.19 | 1.05 | 1 | 1.24 | 1.04 | 1.17 | 1.02 | 1.29 | – | – | – | – | – | 0.327 |
| NCI-H1703 | – | – | – | – | 0.645 | 0.585 | 0.608 | 0.78 | 0.32 | 0.367 | 0.325 | 0.395 | 0.356 | 0.309 | 0.291 | 0.379 | 0.362 | – |
| NCI-H1792 | – | 0.839 | 0.892 | 0.905 | 1 | 0.913 | 0.992 | 1.17 | – | – | – | – | – | 0.698 | 0.646 | 0.598 | 0.663 | 0.857 |
| NCI-H1793 | – | 0.503 | – | 0.399 | – | – | – | – | 0.671 | 0.705 | 0.703 | 0.719 | 0.676 | 0.675 | 0.615 | 0.73 | 0.64 | – |
| NCI-H2342 | 0.288 | 0.309 | 0.344 | 0.334 | – | – | – | – | 0.887 | 1.07 | 1.02 | 1.14 | – | – | – | – | – | 0.323 |
